In US20070203126A1, “Synergistic Mixtures of O-Phenylphenol and Dazomet” (priority 2002, published 2007):

Tested on: artificial bacterial consortium containing approximately equal numbers of six bacterial strains
Test: bacterial growth inhibition dose protocol in synthetic white water (O.D. 650 nm, 4 hours)
Format: cell-based
Conditions: for Synergy Index / Synergy Index**: SI<1 synergism; for ppm BIT: BIT alone or in blend with NaOPP giving 50% inhibition; for ppm DBNPA: DBNPA alone or in blend with NaOPP giving 50% inhibition; for ppm Dithiol: Dithiol alone or in blend with NaOPP giving 50% inhibition; for ppm BNS: BNS alone or in blend with NaOPP giving 50% inhibition; for ppm BCDMH: BCDMH alone or in blend with NaOPP giving 50% inhibition
Method: The actives were evaluated in synthetic white water with pH values of 5.5 and 8.0. The materials were tested against an artificial bacterial consortium containing approximately equal numbers of six bacterial strains. […] Two of the strains were Kiebsiella pneumoia (ATCC 13883) and Pseudomonas aeruginosa (ATCC 15442). The other four strains were isolated from papermill systems and have been identified as Curtobacterium flaccumfaciens, Burkhlderia cepacia, Bacillus maroccanus, and Pseudomonas glethei. Each strain was inoculated at 37° C. overnight, then suspended in sterile saline. Equal volumes of each strain were then combined to prepare the consortium. The bacterial consortium was distributed into the wells of a microtiter plate in the presence or absence of various concentrations of the active materials. The microtiter plates were incubated at 37° C. Optical density (O.D.) readings at 650 nm were taken initially (t0) and after time 4 hours (t4) of incubation.
The raw data was converted to “bacterial growth inhibition percentages” according to the following formula: % Inhibition=[(a−b)÷a]·100 […]
a=(O.D. of control at tn)−(O.D. of control at t0) b=(O.D. of treatment at tn)−(O.D. of treatment at t0)
The inhibition values can be plotted versus dosage for each active and the particular blend. […] The synergism index (SI) was calculated by the equations described by F. C. Kull, P. C. Eisman, H. D. Sylwestrowicz, and R. L. Mayer (1961), Applied Microbiology 9, 538-541. The values are based on the amount needed to achieve a specified end point. […] Synergy Index (SI)=(QA÷Qa)+(QB÷Qb) […]
QA=quantity of compound A in mixture, producing the end point
Qa=quantity of compound A1 acting alone, producing the end point
QB=quantity of compound B in mixture, producing the end point
Qb=quantity of compound B1 acting alone, producing the end point
If SI is less than 1, synergism exists; if SI is greater than 1, antagonism exists, if SI is equal to 1, an additive effect exists.

[1] = pH 5.5, Sulfone & NaOPP, end point 50% inhibition
[2] = pH 8.0, Sulfone & NaOPP, end point 50% inhibition
[3] = pH 5.5, BCDMH & NaOPP, end point 50% inhibition
[4] = pH 5.5, BIT & NaOPP, end point 50% inhibition
[5] = pH 5.5, BNS & NaOPP, end point 50% inhibition
[6] = pH 5.5, DBNPA & NaOPP, end point 50% inhibition
[7] = pH 5.5, DIMTS & NaOPP, end point 50% inhibition
[8] = pH 5.5, Dithiol & NaOPP, end point 50% inhibition
[9] = pH 5.5, NaOCl & NaOPP, Calculated Using 30% Inhibition of Bacterial Growth
[10] = pH 8.0, BCDMH & NaOPP, end point 50% inhibition
[11] = pH 8.0, BIT & NaOPP, end point 50% inhibition
[12] = pH 8.0, BNS & NaOPP, end point 50% inhibition
[13] = pH 8.0, DBNPA & NaOPP, end point 50% inhibition
[14] = pH 8.0, DIMTS & NaOPP, Calculated Using 40% Inhibition of Bacterial Growth
[15] = pH 8.0, Dithiol & NaOPP, end point 50% inhibition

Structure (SMILES): O=S(=O)(C(Cl)(Cl)Cl)C(Cl)(Cl)Cl [Sulfone, Bis(trichlormethyl)sulfone]
- Synergy Index [1]: 1.00
- ppm Sulfone (pH 5.5, Sulfone alone or in blend with NaOPP giving 50% inhibition, ppm active): 1.154 ppm
- Synergy Index [2]: 1.00
- Ppm Sulfone (pH 8.0, Sulfone alone or in blend with NaOPP giving 50% inhibition, ppm active): 1.34 ppm

Structure (SMILES): [Na+].[O-]c1ccccc1-c1ccccc1 [NaOPP, Sodium orthophenylphenate]
- Synergy Index [3]: 1.00
- Synergy Index [4]: 1.00
- Synergy Index [5]: 1.00
- Synergy Index [6]: 1.00
- Synergy Index [7]: 1.00
- Synergy Index (pH 5.5, Dazomet & NaOPP, end point 50% inhibition): 1.00
- Synergy Index [8]: 1.00
- Synergy Index (pH 5.5, Iso & NaOPP, end point 50% Inhibition): 1.00
- Synergy Index** [9]: 1.00
- ppm NaOPP (pH 5.5, NaOPP alone or in blend with BCDMH giving 50% inhibition, ppm active): 78.40 ppm
- ppm NaOPP (pH 5.5, NaOPP alone or in blend with BIT giving 50% inhibition, ppm active): 84.96 ppm
- ppm NaOPP (pH 5.5, NaOPP alone or in blend with BNS giving 50% inhibition, ppm active): 90.47 ppm
- ppm NaOPP (pH 5.5, NaOPP alone or in blend with DBNPA giving 50% inhibition, ppm active): 88.38 ppm
- ppm NaOPP (pH 5.5, NaOPP alone or in blend with DIMTS giving 50% inhibition, ppm active): 84.10 ppm
- ppm NaOPP (pH 5.5, NaOPP alone or in blend with Iso giving 50% Inhibition, ppm active): 82.73 ppm
- ppm NaOPP (pH 5.5, NaOPP alone or in blend with NaOCl producing the end point, footnote: 30% Inhibition of Bacterial Growth): 54.92 ppm
- ppm NaOPP (pH 5.5, NaOPP alone or in blend with Sulfone giving 50% inhibition, ppm active): 56.78 ppm
- Synergy Index [1]: 1.00
- Synergy Index [10]: 1.00
- Synergy Index [11]: 1.00
- Synergy Index [12]: 1.00
- Synergy Index [13]: 1.00
- Synergy Index** [14]: 1.00
- Synergy Index (pH 8.0, Dazomet & NaOPP, end point 50% inhibition): 1.00
- Synergy Index [15]: 1.00
- Synergy Index (pH 8.0, Iso & NaOPP, end point 50% Inhibition): 1.00
- ppm NaOPP (pH 8.0, NaOPP alone or in blend with BIT giving 50% inhibition, ppm active): 116.41 ppm
- ppm NaOPP (pH 8.0, NaOPP alone or in blend with BNS giving 50% inhibition, ppm active): 123.16 ppm
- ppm NaOPP (pH 8.0, NaOPP alone or in blend with DBNPA giving 50% inhibition, ppm active): 137.13 ppm
- ppm NaOPP (pH 8.0, NaOPP alone or in blend with DIMTS producing the end point, footnote: 40% Inhibition of Bacterial Growth): 97.74 ppm
- ppm NaOPP (pH 8.0, NaOPP alone or in blend with Dazomet giving 50% inhibition, ppm active): 158.32 ppm
- ppm NaOPP (pH 8.0, NaOPP alone or in blend with Dithiol giving 50% inhibition, ppm active): 132.71 ppm
- ppm NaOPP (pH 8.0, NaOPP alone or in blend with Iso giving 50% Inhibition, ppm active): 114.14 ppm
- ppm NaOPP (pH 8.0, NaOPP alone or in blend with Sulfone giving 50% inhibition, ppm active): 67.8 ppm
- Synergy Index [2]: 1.00

Structure (SMILES): O=c1[nH]sc2ccccc12 [BIT, 1,2-Benzisothiazolin-3-one]
- Synergy Index [4]: 1.00
- ppm BIT (pH 5.5, ppm active): 1.46 ppm
- Synergy Index [11]: 1.00
- ppm BIT (pH 8.0, ppm active): 2.86 ppm

Structure (SMILES): N#CC(Br)(Br)C(N)=O [DBNPA, 2,2-Dibromo-3-nitrilopropionamide]
- Synergy Index [6]: 1.00
- ppm DBNPA (pH 5.5, ppm active): 1.69 ppm
- Synergy Index [13]: 1.00
- ppm DBNPA (pH 8.0, ppm active): 3.01 ppm

Structure (SMILES): Cc1ccc(S(=O)(=O)C(I)I)cc1 [DIMTS, Diiodomethyl-p-tolylsulfone]
- Synergy Index [7]: 1.00
- ppm DIMTS (pH 5.5, DIMTS alone or in blend with NaOPP giving 50% inhibition, ppm active): 31.65 ppm
- Synergy Index** [14]: 1.00
- ppm DIMTS (pH 8.0, DIMTS alone or in blend with NaOPP producing the end point, footnote: 40% Inhibition of Bacterial Growth): 22.84 ppm

Structure (SMILES): OCl [NaOCl, Sodium Hypochlorite]
- Synergy Index** [9]: 1.00
- ppm NaOCl (pH 5.5, NaOCl alone or in blend with NaOPP producing the end point, footnote: 30% Inhibition of Bacterial Growth): 55.27 ppm

Structure (SMILES): O=c1ssc(Cl)c1Cl [Dithiol, 4,5-Dichloro-1,2-dithiol-3-one]
- Synergy Index [8]: 1.00
- ppm Dithiol (pH 5.5, ppm active): 0.073 ppm
- Synergy Index [15]: 1.00
- ppm Dithiol (pH 8.0, ppm active): 0.16 ppm

Structure (SMILES): O=[N+]([O-])C(Br)=Cc1ccccc1 [BNS, Bromonitrostyrene]
- Synergy Index [5]: 1.00
- ppm BNS (pH 5.5, ppm active): 1.19 ppm
- Synergy Index [12]: 1.00
- ppm BNS (pH 8.0, ppm active): 3.08 ppm

Structure (SMILES): CC1(C)C(=O)N(Cl)C(=O)N1Br [BCDMH, 1-Bromo-3-chloro-5,5-dimethylhydantoin]
- Synergy Index [3]: 1.00
- ppm BCDMH (pH 5.5, ppm active): 14.60 ppm
- Synergy Index [10]: 1.00
- ppm BCDMH (pH 8.0, ppm active): 34.37 ppm
